Assay results published in patent publication US11859203B2, “Cell culture methods” (UCB BIOPHARMA SRL, priority 2017, dated 2024).

Experiments:
Format in all cases: cell-based, Chinese Hamster
[1] = system: CHO-DG44 cells from cell line 1; assay: Fed-batch 2 L bioreactor culture with cysteine/cystine derivatives, cell line 1 (Example 3); conditions: 50% replacement, cell line 1, 2 L bioreactor
Description: (§1) The ability of cysteine/cystine derivatives to reduce color and acidic species of a recombinant protein preparation produced in cell culture was evaluated in a bioreactor for two cell lines. This model is more representative of the large-scale production than the shake flask due to the geometry and additional control. CHO-DG44 cells from cell line 1 and 2 were inoculated in 1300 mL of basal media at a seeding density of 0.35×10^6 cells/mL in 2 L stirred bioreactor (Sartorius). The cells were cultivated during 14 days in fed-batch mode. The cell cultures were agitated at 280 rpm and the DO was maintained at 40%. The cell culture was maintained at pH 7.0±0.2 with an automatic CO2 sparging regulation. Cells were cultured in a fed-batch mode with bolus addition of Feed every day of culture. The basal media contained 0.04 mmol/L of cysteine+0.38 mmol/L of cystine. The Feed contained 153.3 mmol/L of cystine. Over the entire 14-day production phase, the total volume of Feed added corresponded to 5.7% (w/w) of the culture start volume for cell line 1 and to 3.1% (w/w) of the culture start volume for cell line 2.
(§2) The cysteine present in the Feed was replaced by different cysteine- and cystine derivatives at different percentages as presented in Table 2. A condition with only 50% of cysteine was added to test whether the improvements observed were due to the cysteine derivative or to the reduction of cysteine only. Osmolality was daily monitored using an osmometer from Advanced instrument. Off line pH, dissolved O2 and dissolved CO2 were daily monitored using a Nova Biomedical Phox (Nova biomedical). Metabolites concentrations were daily determined using a CedexBioHT system (Roche). Viable cell concentration and cell viability were measured daily using a ViCell automated cell counter (Beckman Coulter). The cell culture fluid was collected daily by centrifuging 1 mL of cell culture fluid for determination of antibody titer by HPLC prot A (waters) or using protein-L Octet measurement (Pall). At the end of the 14 days of culture, the cell culture fluid was harvested by centrifugation. The supernatant was then purified using a protein-A or L affinity chromatography (GE). The protein-A or L eluates were used for the molecular weight determination using UPLC size exclusion (Waters) and for the charge variants determination using isocapillary focusing (PROTEINSIMPLE iCE3). Another part of the protein-A eluates (only from cell line 1) was concentrated to 40 mg/mL using Amicon centricon centrifugal filter devices (Millipore). Color intensity of the concentrated antibody composition was measured in the concentrated protein A eluates using a spectrophotometer by transmission (UltrascanPro) and compared to the CIE (commission internationale de l'éclairage) scale. The numerical results were normalized to the concentration of 40 mg/mL.

[2] = system: CHO-DG44 cells producing a multispecific antibody derivative (cell line 2); assay: Fed-batch shake flask culture with cysteine/cystine derivatives, cell line 2 (Example 2); conditions: 50% replacement; day 14; cell line 2, shake flask
Description: The ability of cysteine/cystine derivatives to reduce color and acidic species of a recombinant protein preparation in cell culture was evaluated using another antibody-producing cell line, cell line 2. For this experiment a scale-down model in shake flask was used. CHO-DG44 cells producing a multispecific antibody derivative were inoculated in 100 mL of basal media at a seeding density of 0.35×10^6 cells/mL. The shake flask vessels were 250 mL shake flasks (corning) disposed in an agitated incubator (Infors) protected from light. The cells were cultivated for 14 days at 36.8° C. with 80% of humidity. The cell cultures were agitated at 140 rpm at the beginning of the process. The agitation was increased during the process progressively to reach 250 rpm to maintain a DO % at 40% in the shake flask, as is it done in the 2 L bioreactor process. […]
The cysteine present in the Feed was replaced by different cysteine and cystine derivatives with a replacement ratio of 50% equimolar (Table 1). […] Osmolality was daily monitored using an osmometer from Advanced instrument. Off line pH, dissolved O2 and dissolved CO2 were daily monitored using a Nova Biomedical Phox (Nova biomedical). Metabolites concentrations were daily determined using a CedexBioHT system (Roche). Viable cell concentration and cell viability were measured daily using a ViCell automated cell counter (Beckman Coulter). […]

[3] = system: cell line 1; assay: Reproducibility in 2 L bioreactor, cell line 1, average of data sets 1 and 2 (Example 4); conditions: 50% replacement
Description: as §1, §2
The reproducibility of the results was evaluated in bioreactor with cell line 1. The experiments of Example 3 were repeated with an additional control and a bioreactor with 50% S-sulfocysteine 50% Cysteine Feed. The data from the two experiments were analyzed to confirm the effect previously observed with cysteine/cystine derivatives.

[4] = system: CHO-DG44 cells from cell line 2; assay: Fed-batch 2 L bioreactor culture with cysteine/cystine derivatives, cell line 2 (Example 3); conditions: 50% replacement; cell line 2, 2 L bioreactor
Description: as §1, §2

[5] = system: CHO-DG44 cells from cell line 1; assay: Fed-batch Ambr15 mini bioreactor culture, different replacement levels, cell line 1 (Example 5); conditions: at optimum, around 70% of replacement
Description: We tested different concentrations of cysteine/cystine derivatives on the improvement on the APG level of a recombinant protein preparation produced in cell culture cultivated in mini bioreactors. CHO-DG44 cells from cell line 1 were inoculated in 12 mL basal media at a seeding density of 0.35×10^6 cells/mL in Ambr15 bioreactors (Sartorius). The cells were cultivated in fed-batch mode during 14 days. The DO was maintained at 40% and the pH was maintained 7.0±0.2 with an automatic CO2 sparging regulation. Viable cell concentration and cell viability were measured daily using a ViCell automated cell counter (Beckman Coulter). Cells were cultured in a fed-batch mode with a daily bolus addition of Feed. The basal media contained 0.04 mmol/L cysteine+0.38 mmol/L cystine. The Feed contained 153.3 mmol/L of cystine. Over the entire 14-day production phase, the total volume of added Feed corresponded to 4.7% (v/v) of the culture start volume.
Different percentages of cysteine present in the Feed was replaced by different cysteine- and cystine analogs. Table 4 provides an overview of different percentages tested and their equivalence in molar ratio relative to cysteine or cystine. E.g. for N-Acetyl-L-cysteine 10% means that 10% molar amount of cysteine equivalent has been replaced by 10% molar amount of N-Acetyl-L-cysteine; for N,N′-Diacetyl-L-cystine, 10% means that 10 molar amount of cystine equivalent has been replaced with 10% molar amount of N,N′-Diacetyl-L-cystine. At the end of the 14 days of culture, the cell culture fluid was harvested by centrifugation. The supernatant was then purified using a protein-A affinity chromatography (GE). The protein-A eluates were used for the charge variants determination using isocapillary focusing (PROTEINSIMPLE iCE3).

CC(=O)N[C@@H](CS)C(=O)O [N-acetyl-L-cysteine, N-Acetyl-L-cysteine]
decrease of acidic species level compared to control [1]: 10% | main species level [1]: increase of main species | decrease of the b value level (color intensity) compared to control ([1]; 40 mg/mL): 13% | decrease on acidic variants level compared to control [2]: 14.5% | specific productivity ([3]; compared to 50% cysteine feed): did not impact the productivity | average decrease of acidic species level compared to control ([3]; data sets 1 and 2 average): 10% | average decrease of b value level (color intensity) compared to control ([3]; data sets 1 and 2 average): 13% | decrease in antibody titer compared to the controls average ([3]; data sets 1 and 2 average): 10% | main species level ([3]; data sets 1 and 2 average): increase of main species | cell growth (VCC) compared to control ([3]; from day 9, 2 L bioreactor, data sets 1 and 2): higher VCCs than the control conditions | decrease of acidic species level compared to control [4]: 13% | main species level [4]: increase of main species | decrease of acidic species [5]: 12.5%
